Laboratory results as given in patent US20080031912A1, “METHOD FOR CONTROLLING CELL MIGRATION ON A SURFACE” (THE REGENTS OF THE UNIVERSITY OF CALIFORNIA, priority 2006, published 2008).

How the values were obtained:
NIH 3T3 cells [1] = experiment: Cell spreading on coated tissue culture dishes (time-lapse microscopy); format: cell-based; settings: surface coated with 1 μg/cm2; observed over 8 hours (3, 6, 8 hours post-plating)
Method: (§1) Cell Culture. NIH 3T3 cells were cultured in DMEM supplemented with 10% calf serum, 1% sodium pyruvate, 1% L-glutamine, 1% penicillin/streptomycin, and maintained in a humidified 5% CO2/95% air incubator at 37° C. Wildtype and pik3R2^−/− MEF cell lines were maintained in DMEM supplemented with 15% FBS and 1% penicillin/streptomycin, and maintained in a humidified 5% CO2, 95% air incubator at 37° C.
(§2) Imaging. NIH 3T3 cells were maintained in complete media (described above) for all experiments. Imaging was done on a Nikon Diaphot 300 inverted microscope with a Hamamatsu Orca ER digital camera controlled by IP lab software (Scanalytics). Images were captured under 10× and 20× phase-contrast microscopy. The cells were under temperature and gas control throughout the duration of the experiments (5% CO2, 95% air, 37° C.). MEF cells were maintained in complete media for all experiments. Imaging was done on a Nikon Diaphot 300 inverted microscope with a Hamamatsu Orca ER digital camera controlled by IP lab, or Metamorph imaging software. Images were captured under 20× and 40× differential interference microscopy (DIC), or fluorescence microscopy. The cells were under temperature and gas control throughout the duration of live cell imaging experiments (5% CO2, 95% air, 37° C.). […]

NIH 3T3 cells [2] = experiment: Cell migration onto coated half of tissue culture dish; format: cell-based; settings: right half of dish coated with 1 μg/cm^2 of each protein; cells seeded on uncoated half, 7 days
Method: as §1, §2

Substance: fibronectin [FN]
- cell spreading on coated surface (NIH 3T3 cells [1]): spread efficiently
- cell migration onto coated surface (NIH 3T3 cells [2]): robust migration
